The subject of this test is Staphylococcus aureus (S. aureus). As to the kind of experiment: Bacterial attachment and biofilm formation on hydrogels in 96-well plates, MTS assay. The format is cell-based. The conditions noted are these: whether or not a hydrogel was present. The procedure:
Determination of bacteriostatic action against S. Aureus bacteria: Staphylococcus aureus (S. aureus) was used to study the resistance of selected dextran-chitosan hydrogels of the present invention to bacterial attachment and biofilm formation. Six different types of gels, having different chitosan-to-dextran ratios, proteins and bactericidal drugs, with six replicates each, were prepared in 96-well plates under sterile conditions. FIG. 18 is a bar chart showing the relative extent of bacterial growth, as estimated by MTS assay, for the various cases studied.
The chitosan and dextran solutions used in this study were prepared as described above. With reference to the labels used in FIG. 17, hydrogels were prepared with chitosan-dextran ratios of 1:1 (“1:1”), 2:1 (“2:1”) and 3:1 (“3:1”). Wells with chitosan sheets alone (“CS”), empty wells (“10̂8”), wells with vancomycin alone (“10̂8+VMC”) and wells with PBS alone (“PBS”) were used as controls. Additional hydrogels having chitosan-dextran ratios of 2:1 were prepared with fibronectin (“2:1+FN”), vancomycin (“2:1+VMC”) or both (“2:1+FN+VMC”) were also studied to understand the effect of drug loading and release on bacterial colony formation.
For the study, triplicate plates of each combination were seeded with S. aureus at a concentration of 1.0×10^8 bacteria/ml. The bacteria were allowed to attach and grow overnight (16 hours). […]
For orientation: Tetrazolium dyes change colour on reduction, which living cells bring about.

Molecules are shown by their SMILES.

Regarding `CN[C@H](CC(C)C)C(=O)N[C@H]1C(=O)N[C@@H](CC(N)=O)C(=O)N[C@H]2C(=O)N[C@H]3C(=O)N[C@H](C(=O)N[C@H](C(=O)O)c4cc(O)cc(O)c4-c4cc3ccc4O)[C@H](O)c3ccc(c(Cl)c3)Oc3cc2cc(c3O[C@@H]2O[C@H](CO)[C@@H](O)[C@H](O)[C@H]2O[C@H]2C[C@](C)(N)[C@H](O)[C@H](C)O2)Oc2ccc(cc2Cl)[C@H]1O` [vancomycin], the bacterial colony formation entry is given as “reduced bacterial colony formation”.

These data come from patent publication US20110076332A1, “Dextran-chitosan based in-situ gelling hydrogels for biomedical applications” (priority 2009, published 2011).
